# Test results as given in US4436751A, “Nitrobenzyl monates antibacterial compounds” (Beecham Group Limited, priority 1980, dated 1984).
# Like-named read-outs stand apart in the source and are kept apart here.
# Experiments:
# Assay type in all cases: cell-based
# M. suipneumoniae JF 435 = test: Anti-mycoplasmal MIC in vitro, Friis broth agarose (Table 1); conditions: Mesomycoplasma hyopneumoniae, JF435, 144 h
# M. hyorhinis ATCC 23234 = test: as above; conditions: Mesomycoplasma hyorhinis, ATCC23234, 144 h
# M. bovis RCTC 10131 = test: microbe, parasite or virus in culture; conditions: RCTC10131, 144 h
# M. suipneumoniae OCD 1 = test: Anti-mycoplasmal MIC in vitro, Friis broth agarose (Table 1); conditions: Mesomycoplasma hyopneumoniae, OCD1, 144 h
# M. suipneumoniae Str. 11 = test: as above; conditions: Mesomycoplasma hyopneumoniae
# [1] = test system: M. suipneumoniae NCTC 10110; test: as above; conditions: Mesomycoplasma hyopneumoniae, NCTC10110, 144 h
# [2] = test system: M. suipneumoniae J2206/183b; test: as above; conditions: Mesomycoplasma hyopneumoniae, 144 h
# M. pneumoniae ATCC 15492 = test: as above; conditions: Mycoplasmoides pneumoniae, ATCC15492, 144 h
# [3] = test system: M. bovigenitalium ATOC 14173; test: as above; conditions: 144 h
# [4] = test system: M. suipneumoniae PW/C/210; test: as above; conditions: Mesomycoplasma hyopneumoniae, 144 h
# E. coli ESS = test: Human bacteria MIC, nutrient agar with chocolated horse blood (Table 3); conditions: Escherichia coli
# Procedure: (§1) The values were determined by serial dilutions in nutrient agar with 5% chocolated horse blood after incubations for 18 hours at 37° C.
# [5] = test system: Neisseria catarrhalis 1502; test: as above
# Procedure: as §1
# Strep. 2733-B = test: as above
# Procedure: as §1
# Strep. agalactiae SPA1 = test: Veterinary bacteria MIC, Diagnostic Sensitivity Test Agar (Table 2); conditions: Streptococcus agalactiae
# Procedure: (§2) The values were determined using a two fold serial dilutions in Diagnostic Sensitivity Test Agar with an inoculum of 10^4 organisms and incubation for 18 hours at 37° C.
# Bord. bronchiseptica BO9 = test: as above; conditions: Bordetella bronchiseptica
# Procedure: as §2
# Bord. bronchiseptica BO8 = test: as above; conditions: Bordetella bronchiseptica
# Procedure: as §2
# [6] = test system: Corynebacterium pyogenes CY1; test: as above; conditions: Trueperella pyogenes
# Procedure: as §2
# Strep. dylgalactiae SPD1 = test: as above
# Procedure: as §2
# Staph. aureus Oxford = test: as above; conditions: Staphylococcus aureus
# Procedure: as §2
# Staph. aureus 152 = test: as above
# Procedure: as §2
# Past. haemolytica PA5 = test: as above; conditions: Mannheimia haemolytica
# Procedure: as §2
# E. Coli E1 = test: as above; conditions: Escherichia coli
# Procedure: as §2
# E. Coli NCTC 10418 = test: as above; conditions: Escherichia coli
# Procedure: as §2
# Staph. aureus B4 = test: as above; conditions: Staphylococcus aureus
# Procedure: as §2
# S. typhimurium S18 = test: as above; conditions: Salmonella enterica
# Procedure: as §2
# S. dublin S7 = test: as above; conditions: Salmonella enterica
# Procedure: as §2
# M. suipneumoniae HR(2) = test: Anti-mycoplasmal MIC in vitro, Friis broth agarose (Table 1); conditions: Mesomycoplasma hyopneumoniae, 144 h
# M. dispar RCTC 10125 = test: as above; conditions: 144 h
# [7] = Staphylococcus aureus, 152, 18 h
smiles,measurement,setting,value
"C/C(=C\C(=O)OCc1ccc([N+](=O)[O-])cc1[N+](=O)[O-])CC1OCC(CC2OC2C(C)C(C)O)C(O)C1O (stereo not drawn) [Example 10, 2,4-dinitrobenzyl monate A]",MIC,M. suipneumoniae JF 435,1 µg/mL
same,MIC,M. hyorhinis ATCC 23234,0.5 µg/mL
same,MIC,M. bovis RCTC 10131,≤ 0.01 µg/mL
same,MIC,M. suipneumoniae OCD 1,1 µg/mL
same,MIC,"M. suipneumoniae Str. 11; STR.11, 144 h",0.5 µg/mL
same,MIC,[1],1 µg/mL
same,MIC,[2]; J2206/183B,1 µg/mL
same,MIC,M. pneumoniae ATCC 15492,2.5 µg/mL
same,MIC,[3],0.025 µg/mL
same,MIC,[4],0.5 µg/mL
same,MIC,E. coli ESS; 18 h,2.5 µg/mL
same,MIC,"[5]; Neisseria, 1502, 18 h",0.05 µg/mL
same,MIC,Strep. 2733-B; 18 h,2.5 µg/mL
same,MIC,"Strep. agalactiae SPA1; SPA1, 18 h",1.25 µg/mL
same,MIC,"Bord. bronchiseptica BO9; BO9, 18 h",5 µg/mL
same,MIC,"Bord. bronchiseptica BO8; BO8, 18 h",40 µg/mL
same,MIC,"[6]; CY1, 18 h",> 80 µg/mL
same,MIC,Strep. dylgalactiae SPD1; 18 h,0.312 µg/mL
same,MIC,Staph. aureus Oxford; 18 h,0.625 µg/mL
same,MIC,Staph. aureus 152; [7],0.625 µg/mL
same,MIC,"Past. haemolytica PA5; PA5, 18 h",2.5 µg/mL
same,MIC,E. Coli E1; 18 h,> 80 µg/mL
same,MIC,"E. Coli NCTC 10418; NCTC10418, 18 h",> 80 µg/mL
same,MIC,"Staph. aureus B4; B4, 18 h",0.625 µg/mL
same,MIC,"S. typhimurium S18; TYPHIMURIUM, 18 h",> 80 µg/mL
same,MIC,"S. dublin S7; S7, 18 h",> 80 µg/mL
same,MIC,M. suipneumoniae HR(2),1 µg/mL
same,MIC,M. dispar RCTC 10125,0.25 µg/mL
"C/C(=C\C(=O)OCc1cccc([N+](=O)[O-])c1)CC1OCC(CC2OC2C(C)C(C)O)C(O)C1O (stereo not drawn) [Example 2, m-nitrobenzyl monate A]",MIC,"M. suipneumoniae JF 435; M. suipneumoniae JF 435, in vitro, 6 days 37° C., read-out: MIC",0.025 µg/mL
same,MIC,"M. hyorhinis ATCC 23234; M. hyorhinis ATCC 23234, in vitro, 6 days 37° C., read-out: MIC",≤ 0.01 µg/mL
same,MIC,M. bovis RCTC 10131,≤ 0.01 µg/mL
same,MIC,"M. suipneumoniae OCD 1; M. suipneumoniae OCD 1, in vitro, 6 days 37° C., read-out: MIC",0.025 µg/mL
same,MIC,"M. suipneumoniae Str. 11; 144 h, M. suipneumoniae Str. 11, in vitro, 6 days 37° C., read-out: MIC",0.025 µg/mL
same,MIC,[1],0.025 µg/mL
same,MIC,"[2]; M. suipneumoniae J2206/183b, in vitro, 6 days 37° C., read-out: MIC",0.025 µg/mL
same,MIC,"M. pneumoniae ATCC 15492; M. pneumoniae ATCC 15492, in vitro, 6 days 37° C., read-out: MIC",1 µg/mL
same,MIC,"[3]; M. bovigenitalium ATOC 14173, in vitro, 6 days 37° C., read-out: MIC",≤ 0.01 µg/mL
same,MIC,"[4]; M. suipneumoniae PW/C/210, in vitro, 6 days 37° C., read-out: MIC",≤ 0.01 µg/mL
same,MIC,"E. coli ESS; E. coli ESS, nutrient agar 5% chocolated horse blood, 18 hours 37° C., read-out: MIC",5 µg/mL
same,MIC,"[5]; Neisseria catarrhalis 1502, nutrient agar 5% chocolated horse blood, 18 hours 37° C., read-out: MIC",2.5 µg/mL
same,MIC,"Strep. 2733-B; Strep. 2733-B, nutrient agar 5% chocolated horse blood, 18 hours 37° C., read-out: MIC",10 µg/mL
same,MIC,"Strep. agalactiae SPA1; Strep. agalactiae SPA1, DST Agar, 10^4 organisms, 18 hours 37° C., read-out: MIC",0.625 µg/mL
same,MIC,"Bord. bronchiseptica BO9; Bord. bronchiseptica BO9, DST Agar, 10^4 organisms, 18 hours 37° C., read-out: MIC",5 µg/mL
same,MIC,"Bord. bronchiseptica BO8; Bord. bronchiseptica BO8, DST Agar, 10^4 organisms, 18 hours 37° C., read-out: MIC",20 µg/mL
same,MIC,"[6]; Corynebacterium pyogenes CY1, DST Agar, 10^4 organisms, 18 hours 37° C., read-out: MIC",> 80 µg/mL
same,MIC,"Strep. dylgalactiae SPD1; Strep. dylgalactiae SPD1, DST Agar, 10^4 organisms, 18 hours 37° C., read-out: MIC",0.312 µg/mL
same,MIC,"Staph. aureus Oxford; Staph. aureus Oxford, DST Agar, 10^4 organisms, 18 hours 37° C., read-out: MIC",0.625 µg/mL
same,MIC,"Staph. aureus 152; Staphylococcus aureus, Staph. aureus 152, DST Agar, 10^4 organisms, 18 hours 37° C., read-out: MIC",0.625 µg/mL
same,MIC,"Past. haemolytica PA5; Past. haemolytica PA5, DST Agar, 10^4 organisms, 18 hours 37° C., read-out: MIC",5 µg/mL
same,MIC,"E. Coli E1; E. Coli E1, DST Agar, 10^4 organisms, 18 hours 37° C., read-out: MIC",40 µg/mL
same,MIC,"E. Coli NCTC 10418; NCTC10418, E. Coli NCTC 10418, DST Agar, 10^4 organisms, 18 hours 37° C., read-out: MIC",40 µg/mL
same,MIC,"Staph. aureus B4; Staph. aureus B4, DST Agar, 10^4 organisms, 18 hours 37° C., read-out: MIC",0.625 µg/mL
same,MIC,"S. typhimurium S18; S. typhimurium S18, DST Agar, 10^4 organisms, 18 hours 37° C., read-out: MIC",40 µg/mL
same,MIC,"S. dublin S7; S. dublin S7, DST Agar, 10^4 organisms, 18 hours 37° C., read-out: MIC",80 µg/mL
same,MIC,"M. suipneumoniae HR(2); M. suipneumoniae HR(2), in vitro, 6 days 37° C., read-out: MIC",0.025 µg/mL
same,MIC,"M. dispar RCTC 10125; M. dispar RCTC 10125, in vitro, 6 days 37° C., read-out: MIC",0.01 µg/mL
"C/C(=C\C(=O)OCc1cc([N+](=O)[O-])cc([N+](=O)[O-])c1C)CC1OCC(CC2OC2C(C)C(C)O)C(O)C1O (stereo not drawn) [Example 7, 3,5-dinitro-2-methylbenzyl monate A]",MIC,M. suipneumoniae JF 435,0.25 µg/mL
same,MIC,M. hyorhinis ATCC 23234,0.1 µg/mL
same,MIC,M. bovis RCTC 10131,≤ 0.1 µg/mL
same,MIC,M. suipneumoniae OCD 1,0.25 µg/mL
same,MIC,"M. suipneumoniae Str. 11; STR.11, 144 h",0.1 µg/mL
same,MIC,[1],0.25 µg/mL
same,MIC,[2]; J2206/183B,0.25 µg/mL
same,MIC,M. pneumoniae ATCC 15492,2.5 µg/mL
same,MIC,[3],≤ 0.1 µg/mL
same,MIC,[4],0.1 µg/mL
same,MIC,E. coli ESS; 18 h,2.5 µg/mL
same,MIC,"[5]; Neisseria, 1502, 18 h",0.25 µg/mL
same,MIC,Strep. 2733-B; 18 h,2.5 µg/mL
same,MIC,"Strep. agalactiae SPA1; SPA1, 18 h",0.625 µg/mL
same,MIC,"Bord. bronchiseptica BO9; BO9, 18 h",10 µg/mL
same,MIC,"Bord. bronchiseptica BO8; BO8, 18 h",40 µg/mL
same,MIC,"[6]; CY1, 18 h",> 80 µg/mL
same,MIC,Strep. dylgalactiae SPD1; 18 h,0.625 µg/mL
same,MIC,Staph. aureus Oxford; 18 h,0.625 µg/mL
same,MIC,Staph. aureus 152; [7],0.625 µg/mL
same,MIC,"Past. haemolytica PA5; PA5, 18 h",5 µg/mL
same,MIC,E. Coli E1; 18 h,> 80 µg/mL
same,MIC,"E. Coli NCTC 10418; NCTC10418, 18 h",> 80 µg/mL
same,MIC,"Staph. aureus B4; B4, 18 h",0.625 µg/mL
same,MIC,"S. typhimurium S18; TYPHIMURIUM, 18 h",> 80 µg/mL
same,MIC,"S. dublin S7; S7, 18 h",> 80 µg/mL
same,MIC,M. suipneumoniae HR(2),0.25 µg/mL
same,MIC,M. dispar RCTC 10125,0.05 µg/mL
